From ChEMBL document CHEMBL1150308, “Cytotoxic constituents from Brazilian red propolis and their structure-activity relationship” (Bioorg Med Chem, 2008)

Experiments:
Assay type in all cases: functional, cell-based
[1] = system: HeLa; test: Cytotoxicity against human HeLa cells after 72 hrs by MTT assay
[2] = Cytotoxicity against mouse LLC cells after 72 hrs by MTT assay; details: Lewis lung carcinoma
[3] = Cytotoxicity against mouse colon 26-L5 cells after 72 hrs by MTT assay
[4] = system: A549; test: Cytotoxicity against human A549 cells after 72 hrs by MTT assay; details: A549, 72 h
[5] = system: HT-1080; test: Cytotoxicity against human HT1080 cells after 72 hrs by MTT assay; details: HT-1080, 72 h
[6] = Cytotoxicity against mouse B16-BL6 cells after 72 hrs by MTT assay; details: B16-BL6, 72 h

Q: Which IC50 [1] does the source give for `COc1ccc2c(C)c(-c3ccc(O)cc3O)oc2c1` here?
A: 36.1 µM

Q: And the IC50 [2]?
A: 34.4 µM

Q: What about the IC50 [3] of the same molecule?
A: 27.8 µM

Q: What about the IC50 [4] of the same molecule?
A: 42.6 µM

Q: What about the IC50 [5] of the same molecule?
A: 38.7 µM

Q: What about the IC50 [6] of the same molecule?
A: 44.8 µM

Q: Which results are given for `O=C1c2ccc(O)cc2O[C@H](c2ccc(O)cc2)[C@H]1O` [GARBANZOL]?
A: IC50 [1]: > 100 µM; IC50 [2]: > 100 µM; IC50 [3]: > 100 µM; IC50 [4]: > 100 µM; IC50 [5]: > 100 µM; IC50 [6]: > 100 µM

Q: Which IC50 [1] does the source give for `COc1ccc2c(c1O)O[C@@H]1c3ccc(O)cc3OC[C@H]21` here?
A: 61.2 µM

Q: What about the IC50 [2] of the same molecule?
A: 57.2 µM

Q: What about the IC50 [3] of the same molecule?
A: 68.1 µM

Q: What about the IC50 [4] of the same molecule?
A: > 100 µM

Q: What about the IC50 [5] of the same molecule?
A: > 100 µM

Q: What about the IC50 [6] of the same molecule?
A: 47.5 µM

Q: For `COc1ccc([C@H]2COc3cc(O)ccc3C2)c(OC)c1O` [MUCRONULATOL], which IC50 [1] is on record?
A: 24.2 µM

Q: What about the IC50 [2] of the same molecule?
A: 8.4 µM

Q: And the IC50 [3]?
A: 7.3 µM

Q: What about the IC50 [4] of the same molecule?
A: 9.9 µM

Q: What about the IC50 [5] of the same molecule?
A: 18.2 µM

Q: What about the IC50 [6] of the same molecule?
A: 30.4 µM

Q: Which IC50 [1] does the source give for `COc1c(O)cc2oc(-c3ccccc3)c(O)c(=O)c2c1O` [ALNUSIN] here?
A: > 100 µM

Q: What about the IC50 [2] of the same molecule?
A: > 100 µM

Q: What about the IC50 [3] of the same molecule?
A: > 100 µM

Q: What about the IC50 [4] of the same molecule?
A: > 100 µM

Q: What about the IC50 [5] of the same molecule?
A: > 100 µM

Q: What about the IC50 [6] of the same molecule?
A: > 100 µM

Q: For `COc1c(O)cc2c(c1O)C(=O)[C@H](O)[C@@H](c1ccccc1)O2` [ALNUSTINOL], which IC50 [1] is on record?
A: > 100 µM

Q: And the IC50 [2]?
A: > 100 µM

Q: What about the IC50 [3] of the same molecule?
A: > 100 µM

Q: What about the IC50 [4] of the same molecule?
A: > 100 µM

Q: And the IC50 [5]?
A: > 100 µM

Q: And the IC50 [6]?
A: > 100 µM

Q: Which IC50 [1] does the source give for `COc1ccc([C@H]2COc3cc(O)ccc3C2=O)c(OC)c1O` here?
A: > 100 µM

Q: And the IC50 [2]?
A: > 100 µM

Q: What about the IC50 [3] of the same molecule?
A: > 100 µM

Q: What about the IC50 [4] of the same molecule?
A: > 100 µM

Q: And the IC50 [5]?
A: > 100 µM

Q: What about the IC50 [6] of the same molecule?
A: > 100 µM

Q: What does the source list for `O=c1[nH]cc(F)c(=O)[nH]1` [FLUOROURACIL]?
A: IC50 [1]: 0.77 µM; IC50 [2]: 2.59 µM; IC50 [3]: 0.46 µM; IC50 [4]: 9.19 µM; IC50 [5]: 9.45 µM; IC50 [6]: 5.78 µM

Q: For `COc1ccc([C@H]2OC[C@H]3[C@@H]2CO[C@@H]3c2ccc(OC)c(OC)c2)cc1OC` [(+)-EUDESMIN], which IC50 [1] is on record?
A: > 100 µM

Q: And the IC50 [2]?
A: > 100 µM

Q: And the IC50 [3]?
A: > 100 µM

Q: What about the IC50 [4] of the same molecule?
A: > 100 µM

Q: And the IC50 [5]?
A: > 100 µM

Q: And the IC50 [6]?
A: > 100 µM

Q: Which IC50 [1] does the source give for `COc1ccc([C@H]2COc3cc(O)cc(O)c3C2=O)c(O)c1` here?
A: > 100 µM

Q: What about the IC50 [2] of the same molecule?
A: > 100 µM

Q: And the IC50 [3]?
A: 71.3 µM

Q: And the IC50 [4]?
A: > 100 µM

Q: What about the IC50 [5] of the same molecule?
A: > 100 µM

Q: And the IC50 [6]?
A: > 100 µM

Q: What does the source list for `COc1cc([C@H]2OC[C@H]3[C@@H]2CO[C@@H]3c2cc(OC)c(O)c(OC)c2)cc(OC)c1O` [SYRINGARESINOL]?
A: IC50 [1]: > 100 µM; IC50 [2]: > 100 µM; IC50 [3]: > 100 µM; IC50 [4]: > 100 µM; IC50 [5]: > 100 µM; IC50 [6]: > 100 µM

Q: For `COc1ccc(-c2coc3cc(O)cc(O)c3c2=O)cc1O` [PRATENSEIN], which IC50 [1] is on record?
A: > 100 µM

Q: What about the IC50 [2] of the same molecule?
A: > 100 µM

Q: What about the IC50 [3] of the same molecule?
A: > 100 µM

Q: And the IC50 [4]?
A: > 100 µM

Q: What about the IC50 [5] of the same molecule?
A: > 100 µM

Q: And the IC50 [6]?
A: > 100 µM

Q: With `COc1ccc2c(c1)O[C@@H]1c3ccc(O)cc3OC[C@H]21` as the molecule, how does the IC50 [1] read?
A: 23.4 µM

Q: What about the IC50 [2] of the same molecule?
A: 17.2 µM

Q: What about the IC50 [3] of the same molecule?
A: 11.3 µM

Q: What about the IC50 [4] of the same molecule?
A: 39.5 µM

Q: And the IC50 [5]?
A: 28.4 µM

Q: And the IC50 [6]?
A: 42.4 µM

Q: Which results are given for `O=C(/C=C/c1ccccc1)c1ccc(O)cc1O` [2',4'-DIHYDROXYCHALCONE]?
A: IC50 [1]: 23.1 µM; IC50 [2]: 39.5 µM; IC50 [3]: 7.4 µM; IC50 [4]: 41.6 µM; IC50 [5]: 34 µM; IC50 [6]: 44.3 µM

Q: Which IC50 [1] does the source give for `COc1ccc(-c2coc3cc(O)ccc3c2=O)cc1O` [CALYCOSIN] here?
A: > 100 µM

Q: What about the IC50 [2] of the same molecule?
A: > 100 µM

Q: And the IC50 [3]?
A: 98 µM

Q: And the IC50 [4]?
A: > 100 µM

Q: And the IC50 [5]?
A: > 100 µM

Q: And the IC50 [6]?
A: > 100 µM

Q: What does the source list for `COc1cc2c(cc1O)O[C@H](c1ccccc1)CC2=O`?
A: IC50 [1]: 5.6 µM; IC50 [2]: 9.3 µM; IC50 [3]: 5.9 µM; IC50 [4]: 8.6 µM; IC50 [5]: 7.9 µM; IC50 [6]: 6.7 µM

Q: Which IC50 [1] does the source give for `COc1ccc(-c2coc3cc(O)ccc3c2=O)cc1` [FORMONONETIN] here?
A: > 100 µM

Q: What about the IC50 [2] of the same molecule?
A: > 100 µM

Q: What about the IC50 [3] of the same molecule?
A: 83.6 µM

Q: And the IC50 [4]?
A: > 100 µM

Q: And the IC50 [5]?
A: > 100 µM

Q: And the IC50 [6]?
A: > 100 µM

Q: With `COc1ccc(-c2coc3cc(O)ccc3c2=O)c(O)c1` [XENOGNOSIN B] as the molecule, how does the IC50 [1] read?
A: 69.8 µM

Q: And the IC50 [2]?
A: > 100 µM

Q: And the IC50 [3]?
A: 49.3 µM

Q: And the IC50 [4]?
A: > 100 µM

Q: And the IC50 [5]?
A: > 100 µM

Q: And the IC50 [6]?
A: 34.1 µM

Q: Which results are given for `COc1ccc2c(c1)O[C@H]1c3ccc(O)c(O)c3OC[C@@H]21`?
A: IC50 [1]: > 100 µM; IC50 [2]: > 100 µM; IC50 [3]: 54.1 µM; IC50 [4]: > 100 µM; IC50 [5]: > 100 µM; IC50 [6]: > 100 µM

Q: With `COc1cc([C@@H]2OC[C@@H]3[C@H]2CO[C@H]3c2ccc(O)c(OC)c2)ccc1O` [(+)-PINORESINOL] as the molecule, how does the IC50 [1] read?
A: 92.5 µM

Q: What about the IC50 [2] of the same molecule?
A: > 100 µM

Q: What about the IC50 [3] of the same molecule?
A: > 100 µM

Q: What about the IC50 [4] of the same molecule?
A: > 100 µM

Q: What about the IC50 [5] of the same molecule?
A: > 100 µM

Q: And the IC50 [6]?
A: > 100 µM

Q: With `O=c1c(-c2ccc(O)cc2)coc2cc(O)ccc12` [DAIDZEIN] as the molecule, how does the IC50 [1] read?
A: > 100 µM

Q: And the IC50 [2]?
A: > 100 µM

Q: What about the IC50 [3] of the same molecule?
A: 88.1 µM

Q: What about the IC50 [4] of the same molecule?
A: > 100 µM

Q: And the IC50 [5]?
A: > 100 µM

Q: And the IC50 [6]?
A: > 100 µM
